One data set concerns S. aureus B1. Put plainly: In vitro antibacterial activity (MIC), agar dilution technique. Format: cell-based. The following applies: Staphylococcus aureus. The method, then: (§1) The in vitro antibacterial activity of the compounds of the present invention against various test bacteria was measured by an agar dilution technique using sensitivity test agar (Eiken) as a test medium according to the MIC method specified by the Japan Chemotherapeutic Society.
(§2) The results are represented by the MIC value (minimum inhibitory concentration to microorganisms, mcg/ml), and shown in Table 1.
(In agar dilution, organisms are placed on agar that contains the substance at set levels.)

A further data set relates to S. aureus J-109. The description is as above. Format: cell-based. The following applies: Staphylococcus aureus. The method, then: as §1, §2
The conditions of data set [1]: in vivo; cited from earlier work.
[2] abbreviates: S. aureus B1, agar dilution, sensitivity test agar (Eiken), read-out: MIC value.
Setting [3] is: J109, S. aureus J-109, agar dilution, sensitivity test agar (Eiken), read-out: MIC value.

The MIC is the lowest concentration that inhibits growth of the organism.

In brackets after ≈: the same amount, converted by molar mass. Like-named read-outs stand apart in the source and are kept apart here. Bounds are passed on as bounds.

For `CC[C@H]1OC(=O)[C@H](C)[C@@H](O[C@H]2C[C@@](C)(OC)[C@@H](O)[C@H](C)O2)[C@H](C)[C@@H](O[C@@H]2O[C@H](C)C[C@H](N(C)C)[C@H]2O)[C@](C)(OC)C[C@@H](C)C(=NOCc2c(C)cc(C)cc2C)[C@H](C)[C@@H](O)[C@]1(C)O` [Compound No. 1, 6-0-methylerythromycin A 9-[0-(2,4,6-trimethylbenzyl)oxime]], the MIC in the data set on S. aureus B1 (setting [2]) and with S. aureus J-109 (setting [3]) was 6.25 µg/mL (≈ 6.98 µM) each time.

With `CC[C@H]1OC(=O)[C@H](C)[C@@H](O[C@H]2C[C@@](C)(OC)[C@@H](O)[C@H](C)O2)[C@H](C)[C@@H](O[C@@H]2O[C@H](C)C[C@H](N(C)C)[C@H]2O)[C@](C)(OC)C[C@@H](C)C(=NOCC2CC3CCC2C3)[C@H](C)[C@@H](O)[C@]1(C)O` (stereo partly shown) [Compound No. 45], the MIC in the data set with S. aureus B1 (setting [2]) and in the data set on S. aureus J-109 (setting [3]) was 12.5 µg/mL (≈ 14.3 µM) each time.

On to `CC[C@H]1OC(=O)[C@H](C)[C@@H](O[C@H]2C[C@@](C)(OC)[C@@H](O)[C@H](C)O2)[C@H](C)[C@@H](O[C@@H]2O[C@H](C)C[C@H](N(C)C)[C@H]2O)[C@](C)(O)C[C@@H](C)/C(=N\OCOCCOC)[C@H](C)[C@@H](O)[C@]1(C)O` [c], for which the MIC in the data set with S. aureus B1 (setting [2]) and in the data set on S. aureus J-109 (setting [3]) was > 100 µg/mL each time.

In the case of `CC[C@H]1OC(=O)[C@H](C)[C@@H](O[C@H]2C[C@@](C)(OC)[C@@H](O)[C@H](C)O2)[C@H](C)[C@@H](O[C@@H]2O[C@H](C)C[C@H](N(C)C)[C@H]2O)[C@](C)(OC)C[C@@H](C)C(=NOCc2ccc(C(C)C)cc2)[C@H](C)[C@@H](O)[C@]1(C)O` [Compound No. 55], the MIC in the data set on S. aureus B1 (setting [2]) and in the data set with S. aureus J-109 (setting [3]) was 12.5 µg/mL (≈ 14 µM) throughout.

On to `CC[C@H]1OC(=O)[C@H](C)[C@@H](O[C@H]2C[C@@](C)(OC)[C@@H](O)[C@H](C)O2)[C@H](C)[C@@H](O[C@@H]2O[C@H](C)C[C@H](N(C)C)[C@H]2O)[C@](C)(OC)C[C@@H](C)C(=O)[C@H](C)[C@@H](O)[C@]1(C)O` [b], for which the MIC in the data set on S. aureus B1 (setting [2]) and in the data set with S. aureus J-109 (setting [3]) was > 100 µg/mL each time.

`CC[C@H]1OC(=O)[C@H](C)[C@@H](O[C@H]2C[C@@](C)(OC)[C@@H](O)[C@H](C)O2)[C@H](C)[C@@H](O[C@@H]2O[C@H](C)C[C@H](N(C)C)[C@H]2O)[C@](C)(OC)C[C@@H](C)C(=NOCc2c3ccccc3cc3ccccc23)[C@H](C)[C@@H](O)[C@]1(C)O` [A]: the MIC in the data set on S. aureus B1 (setting [2]) and with S. aureus J-109 (setting [3]) was 6.25 µg/mL (≈ 6.56 µM) throughout.

For the molecule `CC[C@H]1OC(=O)[C@H](C)[C@@H](O[C@H]2C[C@@](C)(OC)[C@@H](O)[C@H](C)O2)[C@H](C)[C@@H](O[C@@H]2O[C@H](C)C[C@H](N(C)C)[C@H]2O)[C@](C)(OC)C[C@@H](C)C(=NOC)[C@H](C)[C@@H](O)[C@]1(C)O` [d], the MIC in the data set with S. aureus B1 (setting [2]) and in the data set with S. aureus J-109 (setting [3]) was > 100 µg/mL each time.

For the molecule `CC[C@H]1OC(=O)[C@H](C)[C@@H](O[C@H]2C[C@@](C)(OC)[C@@H](O)[C@H](C)O2)[C@H](C)[C@@H](O[C@@H]2O[C@H](C)C[C@H](N(C)C)[C@H]2O)[C@](C)(OC)C[C@@H](C)C(=NOCc2c(F)cccc2F)[C@H](C)[C@@H](O)[C@]1(C)O` [Compound No. 8], the MIC with S. aureus B1 (setting [2]) and in the data set with S. aureus J-109 (setting [3]) was 12.5 µg/mL (≈ 14.1 µM) each time.

Take `CC[C@H]1OC(=O)[C@H](C)[C@@H](O[C@H]2C[C@@](C)(OC)[C@@H](O)[C@H](C)O2)[C@H](C)[C@@H](O[C@@H]2O[C@H](C)C[C@H](N(C)C)[C@H]2O)[C@](C)(OC)C[C@@H](C)C(=NOCCCCc2ccccc2)[C@H](C)[C@@H](O)[C@]1(C)O` [Compound No. 56]: the MIC with S. aureus B1 (setting [2]) and in the data set on S. aureus J-109 (setting [3]) was 25 µg/mL (≈ 27.9 µM) each time.

With `CC[C@H]1OC(=O)[C@H](C)[C@@H](O[C@H]2C[C@@](C)(OC)[C@@H](O)[C@H](C)O2)[C@H](C)[C@@H](O[C@@H]2O[C@H](C)C[C@H](N(C)C)[C@H]2O)[C@](C)(O)C[C@@H](C)C(=O)[C@H](C)[C@@H](O)[C@]1(C)O` [a], the MIC in the data set with S. aureus B1 (B1, read-out: MIC value) was > 100 µg/mL; in the data set with S. aureus J-109 (J109, read-out: MIC value) it was > 100 µg/mL.

As for `CC[C@H]1OC(=O)[C@H](C)[C@@H](O[C@H]2C[C@@](C)(OC)[C@@H](O)[C@H](C)O2)[C@H](C)[C@@H](O[C@@H]2O[C@H](C)C[C@H](N(C)C)[C@H]2O)[C@](C)(OC)C[C@@H](C)C(=NOC(C)c2ccccc2)[C@H](C)[C@@H](O)[C@]1(C)O` (stereo partly shown) [D], the MIC with S. aureus B1 (setting [2]) and in the data set with S. aureus J-109 (setting [3]) was 12.5 µg/mL (≈ 14.4 µM) throughout.

As for `CC[C@H]1OC(=O)[C@H](C)[C@@H](O[C@H]2C[C@@](C)(OC)[C@@H](O)[C@H](C)O2)[C@H](C)[C@@H](O[C@@H]2O[C@H](C)C[C@H](N(C)C)[C@H]2O)[C@](C)(O)C[C@@H](C)C(=O)[C@H](C)[C@@H](O)[C@]1(C)O` [Erythromycin A], the oral absorption result in data set [1] was “low and inconsistent”.

Take `CC[C@H]1OC(=O)[C@H](C)[C@@H](O[C@H]2C[C@@](C)(OC)[C@@H](O)[C@H](C)O2)[C@H](C)[C@@H](O[C@@H]2O[C@H](C)C[C@H](N(C)C)[C@H]2O)[C@](C)(OC)C[C@@H](C)C(=NOCc2ccc(C(C)(C)C)cc2)[C@H](C)[C@@H](O)[C@]1(C)O` [B]: the MIC in the data set on S. aureus B1 (setting [2]) and in the data set with S. aureus J-109 (setting [3]) was 6.25 µg/mL (≈ 6.87 µM) each time.

The record behind these values is US5302705A, “6-O-methylerythromycin A oxime derivatives” (Taisho Pharmaceutical Co., Ltd., priority 1989, dated 1994).
